Holding throughout (type): cell-based, human
For experiment [1], the system named is hmNPCs. Put plainly: Short-term proliferation: Ki67/nestin immunostaining. Conditions: 100 µM; 5 subsequent days. The method, then: To determine long-term proliferation, […] were plated and expanded for 2 passages with or without addition of various agents (see below) to the custom expansion media containing the growth factors EGF and FGF2. Different fetal midbrain tissues were included in this study. At the end of the proliferation period, differentiation of […] was induced via replacement of expansion media with mitogen-free media containing 1% FCS, 5 μM forskoline (Sigma-Aldrich Chemie GmbH Munich, Germany), and 100 pg/ml IL-1β (Sigma). The differentiation and expansion media were supplemented with different drugs as appropriate. Prior to immunocytochemistry or protein extraction, […] were allowed to differentiate for 1 week. To determine short-term proliferation via Ki67 immunostaining, the cells were seeded into 24-well plates (70,000 cells/well) and left overnight to rest. P2 receptor agonists (ATP, UTP, ATP + UTP, ADP, ADPβS) were supplied daily for 5 consecutive days. Ki67/nestin double-positive cells were counted in 8 randomly selected fields of nucleotide-treated or untreated samples. For the assessment of MAPK phosphorylation the cells were kept free of mitogens for 2 d prior to addition of the MEK-inhibitor in expansion media. In addition, the MEK-inhibitor was added during the differentiation period 15 min before UTP administration. […] Cover-slips were mounted onto glass slides and examined under a fluorescence microscope (Zeiss Axiovert 200). Acquisition of the cells was performed using the Image-analysis software AxioVision 4 (Carl Zeiss AG, Jena, Germany). The following primary antibodies were used for immunofluorescence: rabbit polyclonal anti-β-tubulin III (anti-Tuj1) antibody, rabbit polyclonal anti-tyrosine hydroxylase antibody , mouse monoclonal anti-nestin antibody (Pharmingen, San Diego, CA, USA), rabbit polyclonal anti-Ki67 antigen antibody (Novocastra Laboratories Ltd, Newcastle upon Tyne, UK). Estimation of the TH-positive cell numbers was performed by counting of cells among approximately 1000 differentiated cells in total within 6 randomly selected fields.

In experiment [2] the test system is hmNPCs. Put plainly: Cell death / cell cycle assay (propidium iodide, FACS). Conditions: for Sub-G1 / G0/G1 / G2/M / S: 48 h, 100 µM nucleotides, pretreated 30 minutes with 10 µM suramin or 100 µM PPADS where named; for G0/G1 / G2/M / S: mean ± SEM, n = 3. On the procedure: Untreated (control) and treated exponentially growing […] were prepared for cell cycle analysis by lysing cells in 300 μl of hypotonic lysis buffer (0.1% sodium citrate, 0.1% Triton X-100, and 50 μg/ml propidium iodide [PI]). […] Histograms of DNA content were acquired using the CellQuest software. […] For data analysis and correction of the background, noise histograms were processed with the ModFit LT software (Verity, Turramurra, Australia).

Another experiment relates to ERK1/2. The experiment is described as follows: ERK1/2 (MAPK) phosphorylation by Western blot. Conditions: for expression of phosphorylated ERK1/2, pre-treatment before UTP: 10 µM pre-treatment, 100 µM UTP, one week of differentiation. The method, then: (§1) To determine long-term proliferation, hmNPCs were plated and expanded for 2 passages with or without addition of various agents (see below) to the custom expansion media containing the growth factors EGF and FGF2. Different fetal midbrain tissues were included in this study. At the end of the proliferation period, differentiation of hmNPCs was induced via replacement of expansion media with mitogen-free media containing 1% FCS, 5 µM forskoline (Sigma-Aldrich Chemie GmbH Munich, Germany), and 100 pg/ml IL-1β (Sigma). The differentiation and expansion media were supplemented with different drugs as appropriate. Prior to immunocytochemistry or protein extraction, hmNPCs were allowed to differentiate for 1 week. To determine short-term proliferation via Ki67 immunostaining, the cells were seeded into 24-well plates (70,000 cells/well) and left overnight to rest. P2 receptor agonists (ATP, UTP, ATP + UTP, ADP, ADPβS) were supplied daily for 5 consecutive days. Ki67/nestin double-positive cells were counted in 8 randomly selected fields of nucleotide-treated or untreated samples. For the assessment of MAPK phosphorylation the cells were kept free of mitogens for 2 d prior to addition of the MEK-inhibitor in expansion media. In addition, the MEK-inhibitor was added during the differentiation period 15 min before UTP administration.
(§2) UTP, UDP, ATP, ADP, ADPβS and suramin were purchased from Sigma (Sigma-Aldrich Chemie GmbH Munich, Germany). UTP and UDP were applied at different concentrations (1 µM, 10 µM, 100 µM), ATP at 100 µM, ADP at 100 µM, and ADPβS at100 µM. During expansion of the cells, the nucleotides were renewed once a week with every media change, unless otherwise stated. They were applied once at the beginning of the differentiation period. The P2 receptor antagonist suramin (10 µM) was added to expansion media 30 min prior to addition of UTP (100 µM). The stock solution of the MEK1/2 inhibitor U0126 (Promega Corporation, Mannheim, Germany) was prepared in dimethyl sulfoxide (DMSO) at a concentration of 10 mM. The stock solution was then diluted in 0.1 M PBS to obtain a concentration of 1 mM. MEK inhibitor (final concentration 10 µM) was added to mitogen-free expansion media, 15 min before UTP treatment (1 µM) of hmNPCs.
In order to prepare protein extracts, hmNPCs were collected, washed with ice-cold PBS and lysed in buffer [10 mM HEPES-KOH (pH 7.9), 10 mM KCI, 1.5 mM MgCl2, 0.1% NP-40], supplemented with protease inhibitor cocktail (Roche). After a brief centrifugation at 4°C/10 000×g, protein concentrations and protein yield from extracts were determined using the Bradford method (Bio-Rad, Hercules, CA, USA). To preserve the phosphorylation state of proteins, extracts for the MAPK experiment were obtained using the PhosphoSafe™ extraction reagent containing phophatase inhibitors (Novagen). […] Membranes were blocked with 5% (wt/vol) nonfat dry milk in PBS-T (PBS, 0.1% (vol/vol) Tween 20) for 2 h at room temperature and subsequently incubated with the desired primary antibody (diluted in PBS containing 5% non-fat milk and 0.1% Tween 20) overnight at 4 °C with gentle agitation. The membrane was incubated with horseradish peroxidase-coupled secondary antibody for 1 h at room temperature. […] The chemiluminescence was quantified using the AIDA, two-dimensional densitometry software (Raytest lsotopenmeb, Straubenhardt, Germany).

For experiment [3], the system named is hmNPCs. The experiment is described as follows: Dopaminergic differentiation: counting of TH-positive cells by immunocytochemistry. On the procedure:
as §1, §2
Expanded or one week differentiated hmNPCs were fixed with 4% paraformaldehyde in PBS for 10 min at room temperature and washed with PBS, counterstained with the DNA-binding dye 4'-6-Diamidino-2-phenylindole (DAPI, 2 µg/ml in PBS) for 15 min at room temperature, washed twice in PBS followed by incubation in blocking buffer (10% FCS, 0.2% Triton-X 100 in PBS, pH 7.2) for 30 min at room temperature. After incubation with a primary antibody (over night at 4°C in blocking buffer), the cells were incubated with fluorescent secondary antibodies, Alexa Fluor® 488 conjugate or Alexa Fluor® 594 conjugate (Molecular Probes, Eugene, USA). Cover-slips were mounted onto glass slides and examined under a fluorescence microscope (Zeiss Axiovert 200). Acquisition of the cells was performed using the Image-analysis software AxioVision 4 (Carl Zeiss AG, Jena, Germany). The following primary antibodies were used for immunofluorescence: rabbit polyclonal anti-β-tubulin III (anti-Tuj1) antibody, rabbit polyclonal anti-tyrosine hydroxylase antibody , mouse monoclonal anti-nestin antibody (Pharmingen, San Diego, CA, USA), rabbit polyclonal anti-Ki67 antigen antibody (Novocastra Laboratories Ltd, Newcastle upon Tyne, UK). Estimation of the TH-positive cell numbers was performed by counting of cells among approximately 1000 differentiated cells in total within 6 randomly selected fields.

The test system of experiment [4] is hmNPCs. Put plainly: Dopaminergic differentiation: TH protein expression by Western blot. Conditions: for expression of TH, pre-treatment before UTP: 10 µM pre-treatment, 100 µM UTP, one week of differentiation. The method, then:
as §1, §2
In order to prepare protein extracts, hmNPCs were collected, washed with ice-cold PBS and lysed in buffer [10 mM HEPES-KOH (pH 7.9), 10 mM KCI, 1.5 mM MgCl2, 0.1% NP-40], supplemented with protease inhibitor cocktail (Roche). After a brief centrifugation at 4°C/10 000×g, protein concentrations and protein yield from extracts were determined using the Bradford method (Bio-Rad, Hercules, CA, USA). To preserve the phosphorylation state of proteins, extracts for the MAPK experiment were obtained using the PhosphoSafe™ extraction reagent containing phophatase inhibitors (Novagen). […] Membranes were blocked with 5% (wt/vol) nonfat dry milk in PBS-T (PBS, 0.1% (vol/vol) Tween 20) for 2 h at room temperature and subsequently incubated with the desired primary antibody (diluted in PBS containing 5% non-fat milk and 0.1% Tween 20) overnight at 4 °C with gentle agitation. The membrane was incubated with horseradish peroxidase-coupled secondary antibody for 1 h at room temperature. Chemiluminescence detection was performed by incubating the membranes with SuperSignal-Dura substrate (Pierce Biotechnology, Rockford, U.S.A) followed by analysis on a CCD cooling camera (Fuji LAS-1000plus). The chemiluminescence was quantified using the AIDA, two-dimensional densitometry software (Raytest lsotopenmeb, Straubenhardt, Germany).
(In general: Immunoblotting shows a protein as a band on a membrane.)

Experiment [5] relates to hmNPCs. Put plainly: Long-term proliferation: number of living cells (hemocytometer, trypan blue exclusion). On the procedure:
as §1, §2
Cell counting of control (untreated) and treated hmNPCs was performed using a hemocytometer. Adherent cells were collected by detachment with accutase™ (PAA Laboratories, Pasching, Austria) for 10 min at 37°C. […] The number of total and trypan blue-positive cells was then determined by counting at least 300 cells per sample in a hemocytometer.

Where [6] appears, read: 10 µM antagonist 30 min before 100 µM UTP.

With `Nc1ncnc2c1ncn2[C@@H]1O[C@H](COP(=O)(O)OP(=O)(O)OP(=O)(O)O)[C@@H](O)[C@H]1O` [ATP, adenosine triphosphate], in the experiment on hmNPCs [1], the Ki67-positive cells entry is given as “strong reduction”. Besides, in the experiment with hmNPCs [2], the Sub-G1 is listed as 0.56%, the G0/G1 was 91.69 ± 1.19%, the G2/M turned out to be 1.42 ± 0.11% and the S is 6.89 ± 1.17%.

Regarding `Cc1ccc(C(=O)Nc2ccc(S(=O)(=O)O)c3cc(S(=O)(=O)O)cc(S(=O)(=O)O)c23)cc1NC(=O)c1cccc(NC(=O)Nc2cccc(C(=O)Nc3cc(C(=O)Nc4ccc(S(=O)(=O)O)c5cc(S(=O)(=O)O)cc(S(=O)(=O)O)c45)ccc3C)c2)c1` [suramin], the “expression of phosphorylated ERK1/2, pre-treatment before UTP” value in the experiment on ERK1/2 was “remained at basal levels”. In addition, the “number of TH-positive cells, antagonist before UTP” value in the experiment with hmNPCs [3] (setting [6]) is given as “reduced”. In addition, in the experiment on hmNPCs [4] (setting [6]), the “TH protein content, antagonist before UTP” value is listed as “decreased”. Further, the “expression of TH, pre-treatment before UTP” value in the experiment with hmNPCs [4] was “remained at basal levels”. Further, the “block of the anti-proliferative effects of ATP, ADP and ADPβS” value in the experiment with hmNPCs [2] (30 minutes pretreatment, 10 µM suramin or 100 µM PPADS) is recorded as “failed to block”.

`N#CC(=C(/N)Sc1ccccc1N)/C(C#N)=C(\N)Sc1ccccc1N` [U0126]: in the experiment with ERK1/2 (10 µM inhibitor for 15 min before 1 µM UTP), the “UTP-induced phosphorylation of ERK1/2, inhibitor pretreatment” value is recorded as “abrogated”. Besides, the “expression of phosphorylated ERK1/2, pre-treatment before UTP” value in the experiment with ERK1/2 is “remained at basal levels”. Besides, in the experiment with hmNPCs [5] (data not shown), the “proliferation of hmNPCs” value is “reduced”. The “expression of TH, pre-treatment before UTP” value in the experiment on hmNPCs [4] was “remained at basal levels”.

Turning to `Nc1ncnc2c1ncn2[C@@H]1O[C@H](COP(=O)(O)OP(=O)(O)O)[C@@H](O)[C@H]1O` [ADP, adenosine diphosphate], in the experiment with hmNPCs [3] (Homo sapiens, 168 h, 100 µM each, once, only during the differentiation period of one week, read-out: number of TH-positive (dopaminergic) cells as compared to control), the activity at 100 µM was determined as 11 ± 3%. Moreover, the “number of living cells” value in the experiment on hmNPCs [5] (100 µM each, 2 weeks in expansion media, on coapplication ADP 30 min before UTP, 20160 min) is recorded as 4 ± 0.5%. Also, the Ki67-positive cells entry in the experiment with hmNPCs [1] is on record as “strong reduction”. For the same compound, in the experiment with hmNPCs [2], the Sub-G1 is on record as 0.54%, the G0/G1 is reported as 84.64 ± 0.41%, the G2/M turned out to be 3.72 ± 0.20% and the S came to 11.63 ± 0.2%.

In the case of `O=c1ccn([C@@H]2O[C@H](COP(=O)(O)OP(=O)(O)O)[C@@H](O)[C@H]2O)c(=O)[nH]1` [UDP, uridine 5'-diphosphate], the TH protein levels result with hmNPCs [4] (100 µM during the differentiation period) is “no increase”. Further, in the experiment with hmNPCs [4] (Homo sapiens, 1 µM during the differentiation period, read-out: TH expression in immunoblots), the activity at 1 µM is 194 ± 7%. Moreover, the activity at 10 µM in the experiment on hmNPCs [4] (Homo sapiens, 10 µM during the differentiation period, read-out: TH expression in immunoblots) was found to be 180 ± 8%.

As to `Nc1ncnc2c1ncn2[C@@H]1O[C@H](COP(=O)(O)OP(O)(O)=S)[C@@H](O)[C@H]1O` [ADPβS], the Ki67-positive cells entry in the experiment with hmNPCs [1] is on record as “strong reduction”. Moreover, in the experiment with hmNPCs [2], the Sub-G1 came to 0.82%, the G0/G1 turned out to be 84.21 ± 0.06%, the G2/M worked out at 3.61 ± 0.01% and the S turned out to be 12.17 ± 0.05%.

For the origin of these results see patent publication EP1897937A1, “Method of culturing NPCs” (NeuroProgen GmbH Leipzig, priority 2006, dated 2008).
